Assay results: article PMC9030254, “Target Hopping from Protein Kinases to PXR: Identification of Small-Molecule Protein Kinase Inhibitors as Selective Modulators of Pregnane X Receptor from TüKIC Library” (Cells, 2022)

How the values were obtained:
Assay in all cases: Kinase profiling
Format in all cases: biochemical
VRK1 = biological target: T1, VRK1 (Homo sapiens, UniProt Q99986)
T1 construct: purchased ProQinase (Freiburg, Germany)
T1 sequence (Q99986 1-396): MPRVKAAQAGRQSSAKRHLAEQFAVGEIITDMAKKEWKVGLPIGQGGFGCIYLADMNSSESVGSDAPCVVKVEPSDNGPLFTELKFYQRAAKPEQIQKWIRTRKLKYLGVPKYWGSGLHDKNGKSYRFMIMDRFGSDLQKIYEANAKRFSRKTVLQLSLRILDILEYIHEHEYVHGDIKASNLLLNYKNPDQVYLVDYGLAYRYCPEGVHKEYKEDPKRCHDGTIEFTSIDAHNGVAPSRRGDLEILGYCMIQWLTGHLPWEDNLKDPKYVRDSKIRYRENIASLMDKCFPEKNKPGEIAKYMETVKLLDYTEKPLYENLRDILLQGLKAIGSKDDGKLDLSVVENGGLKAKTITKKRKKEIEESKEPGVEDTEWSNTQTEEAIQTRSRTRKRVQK
Procedure: (§1) The analysis was performed by ProQinase (Freiburg, Germany).

IKKalpha = biological target: T2, IKKalpha (Homo sapiens, UniProt O15111)
T2 construct: purchased ProQinase (Freiburg, Germany)
T2 sequence (O15111 1-745): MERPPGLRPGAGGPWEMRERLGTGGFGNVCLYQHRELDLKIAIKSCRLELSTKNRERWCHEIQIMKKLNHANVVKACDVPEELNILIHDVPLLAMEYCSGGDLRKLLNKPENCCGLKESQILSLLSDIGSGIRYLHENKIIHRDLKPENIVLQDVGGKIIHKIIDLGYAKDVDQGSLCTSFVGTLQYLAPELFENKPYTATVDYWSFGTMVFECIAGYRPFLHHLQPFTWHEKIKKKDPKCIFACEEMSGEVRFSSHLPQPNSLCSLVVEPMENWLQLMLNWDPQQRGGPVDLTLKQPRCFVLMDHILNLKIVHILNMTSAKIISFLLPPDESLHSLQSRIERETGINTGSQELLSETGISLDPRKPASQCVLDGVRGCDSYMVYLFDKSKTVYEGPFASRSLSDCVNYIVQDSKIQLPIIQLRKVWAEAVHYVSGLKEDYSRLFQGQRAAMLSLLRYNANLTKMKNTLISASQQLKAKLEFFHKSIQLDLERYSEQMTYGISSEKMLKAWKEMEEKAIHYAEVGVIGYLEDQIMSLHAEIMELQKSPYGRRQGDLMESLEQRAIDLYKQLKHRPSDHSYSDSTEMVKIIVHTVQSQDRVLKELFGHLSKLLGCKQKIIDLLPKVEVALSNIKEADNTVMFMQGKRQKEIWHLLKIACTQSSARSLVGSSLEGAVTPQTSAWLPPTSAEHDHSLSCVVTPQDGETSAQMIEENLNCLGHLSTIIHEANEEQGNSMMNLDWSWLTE
Procedure: as §1

PKCdelta = biological target: T3, PKCdelta (Homo sapiens, UniProt Q05655)
T3 construct: purchased ProQinase (Freiburg, Germany)
Procedure: as §1

STK23 = biological target: T4, STK23 (Homo sapiens, UniProt Q9UPE1)
T4 construct: purchased ProQinase (Freiburg, Germany)
Procedure: as §1

ACVRL1 = biological target: T5, ACVRL1 (Homo sapiens, UniProt P37023)
T5 construct: purchased ProQinase (Freiburg, Germany)
Procedure: as §1

MYLK3 = biological target: T6, MYLK3 (Homo sapiens, UniProt Q32MK0)
T6 construct: purchased ProQinase (Freiburg, Germany)
T6 sequence (Q32MK0 1-819): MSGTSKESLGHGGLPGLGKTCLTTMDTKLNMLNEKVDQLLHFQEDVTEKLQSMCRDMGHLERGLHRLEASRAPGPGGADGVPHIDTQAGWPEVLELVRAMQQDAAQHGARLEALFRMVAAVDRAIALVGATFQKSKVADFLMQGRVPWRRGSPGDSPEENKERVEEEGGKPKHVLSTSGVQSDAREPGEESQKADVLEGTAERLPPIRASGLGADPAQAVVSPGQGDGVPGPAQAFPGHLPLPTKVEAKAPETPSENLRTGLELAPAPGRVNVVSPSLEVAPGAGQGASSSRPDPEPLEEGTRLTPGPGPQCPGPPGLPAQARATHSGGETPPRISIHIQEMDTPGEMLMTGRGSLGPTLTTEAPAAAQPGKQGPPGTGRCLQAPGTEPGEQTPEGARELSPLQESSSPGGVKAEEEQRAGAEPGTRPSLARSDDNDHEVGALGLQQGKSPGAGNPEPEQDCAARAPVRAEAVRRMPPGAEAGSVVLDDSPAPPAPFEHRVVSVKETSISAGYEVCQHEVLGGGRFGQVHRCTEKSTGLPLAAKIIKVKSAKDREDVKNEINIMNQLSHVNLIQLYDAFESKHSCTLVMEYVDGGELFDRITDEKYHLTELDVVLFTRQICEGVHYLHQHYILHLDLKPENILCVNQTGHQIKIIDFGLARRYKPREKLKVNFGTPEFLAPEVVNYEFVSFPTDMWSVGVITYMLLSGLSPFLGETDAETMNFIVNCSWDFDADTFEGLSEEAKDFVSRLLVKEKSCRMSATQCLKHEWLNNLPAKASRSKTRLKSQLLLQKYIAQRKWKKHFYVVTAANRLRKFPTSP
Procedure: as §1

T5 sequence (P37023 22-503): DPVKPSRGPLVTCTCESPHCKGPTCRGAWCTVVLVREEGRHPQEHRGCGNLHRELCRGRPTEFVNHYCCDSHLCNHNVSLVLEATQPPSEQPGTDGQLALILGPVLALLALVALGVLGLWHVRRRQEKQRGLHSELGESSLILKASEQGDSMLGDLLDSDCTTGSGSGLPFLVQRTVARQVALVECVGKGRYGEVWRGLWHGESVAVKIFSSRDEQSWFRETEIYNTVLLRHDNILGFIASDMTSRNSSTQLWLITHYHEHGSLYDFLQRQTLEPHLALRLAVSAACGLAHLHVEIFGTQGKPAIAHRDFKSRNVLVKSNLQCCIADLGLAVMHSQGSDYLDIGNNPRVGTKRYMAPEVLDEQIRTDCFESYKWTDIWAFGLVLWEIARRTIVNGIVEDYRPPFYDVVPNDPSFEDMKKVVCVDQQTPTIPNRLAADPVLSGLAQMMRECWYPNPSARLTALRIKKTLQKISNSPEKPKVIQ
T4 sequence (Q9UPE1 whole entry): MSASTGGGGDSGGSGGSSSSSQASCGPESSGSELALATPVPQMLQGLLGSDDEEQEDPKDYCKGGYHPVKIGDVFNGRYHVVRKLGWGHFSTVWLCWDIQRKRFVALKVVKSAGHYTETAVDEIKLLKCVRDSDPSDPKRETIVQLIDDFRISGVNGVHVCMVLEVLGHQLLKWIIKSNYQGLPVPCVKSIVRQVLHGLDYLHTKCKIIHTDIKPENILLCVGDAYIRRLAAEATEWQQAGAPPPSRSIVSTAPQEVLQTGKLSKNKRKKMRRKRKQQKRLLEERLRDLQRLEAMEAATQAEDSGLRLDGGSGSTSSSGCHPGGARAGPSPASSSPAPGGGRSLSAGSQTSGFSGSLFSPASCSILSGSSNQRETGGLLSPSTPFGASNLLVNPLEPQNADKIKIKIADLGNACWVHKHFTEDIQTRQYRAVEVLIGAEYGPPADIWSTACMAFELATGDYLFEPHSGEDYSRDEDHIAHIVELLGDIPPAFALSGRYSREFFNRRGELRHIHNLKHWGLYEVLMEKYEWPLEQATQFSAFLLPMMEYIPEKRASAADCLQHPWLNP
T3 sequence (Q05655 whole entry): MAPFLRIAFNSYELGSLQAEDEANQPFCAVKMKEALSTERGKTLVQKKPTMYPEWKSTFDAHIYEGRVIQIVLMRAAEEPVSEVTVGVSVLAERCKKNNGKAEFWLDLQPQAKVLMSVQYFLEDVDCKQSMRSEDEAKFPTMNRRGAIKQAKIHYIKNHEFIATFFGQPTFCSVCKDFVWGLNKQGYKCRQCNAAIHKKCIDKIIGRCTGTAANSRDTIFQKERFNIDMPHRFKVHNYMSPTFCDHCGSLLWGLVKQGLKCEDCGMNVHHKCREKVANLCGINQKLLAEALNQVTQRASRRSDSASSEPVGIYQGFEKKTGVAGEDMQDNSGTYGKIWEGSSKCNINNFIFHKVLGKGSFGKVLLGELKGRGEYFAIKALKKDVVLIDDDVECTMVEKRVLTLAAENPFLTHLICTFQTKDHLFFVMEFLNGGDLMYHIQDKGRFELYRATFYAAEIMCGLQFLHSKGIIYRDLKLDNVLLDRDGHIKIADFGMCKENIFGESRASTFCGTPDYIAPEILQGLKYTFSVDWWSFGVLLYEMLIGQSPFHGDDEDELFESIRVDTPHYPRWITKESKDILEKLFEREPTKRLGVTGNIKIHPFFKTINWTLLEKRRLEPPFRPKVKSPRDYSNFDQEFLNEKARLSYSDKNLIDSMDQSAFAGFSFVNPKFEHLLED

| Structure (SMILES) | Residual activity (VRK1; 1.0E-05 M) | Residual activity (VRK1; 1.0E-06 M) | Residual activity (IKKalpha; 1.0E-05 M) | Residual activity (IKKalpha; 1.0E-06 M) | Residual activity (PKCdelta; 1.0E-05 M) | Residual activity (PKCdelta; 1.0E-06 M) | Residual activity (STK23; 1.0E-05 M) | Residual activity (STK23; 1.0E-06 M) | Residual activity (ACVRL1; 1.0E-05 M) | Residual activity (ACVRL1; 1.0E-06 M) | Residual activity (MYLK3; 1.0E-05 M) | Residual activity (MYLK3; 1.0E-06 M) |
| --- | --- | --- | --- | --- | --- | --- | --- | --- | --- | --- | --- | --- |
| O=C(Cc1ccccc1)Nc1ccc(F)c(Nc2ccc3c(c2)CCCCC3=O)c1 [Compound 100] | 103 % of control | 102 % of control | 102 % of control | 102 % of control | 82 % of control | 98 % of control | 79 % of control | 89 % of control | 100 % of control | 106 % of control | 70 % of control | 97 % of control |
| O=C(Nc1ccc(F)c(Nc2ccc3c(c2)CCCCC3=O)c1)c1cccc(F)c1 [Compound 109] | 130 % of control | 100 % of control | 93 % of control | 104 % of control | 66 % of control | 107 % of control | 76 % of control | 78 % of control | 109 % of control | 94 % of control | 80 % of control | 103 % of control |
